From ChEMBL document CHEMBL4706683 (J Med Chem, 2021)
Active and inactive are the calls of the source. The rule behind the calls is not given here.

What was measured:
Plasmodium falciparum [1] = test: Antiplasmodial activity against artemisinin-resistant Plasmodium falciparum 6218 assessed as reduction in parasite survival at 700 nM incubated for 6 hrs followed by compound washout thrice and further cultured in compound free medium for 66 hrs by RSA; assay type: functional, organism-based
[2] = Cmax in Balb/c mouse at 5 mg/kg, ip administered as single dose measured upto 24 hrs by LC-MS/MS analysis; assay type: ADME, organism-based; parameters: route intraperitoneal, dose 5 mg/kg, time <=24; conditions: in vivo
Plasmodium falciparum [3] = test: Antiplasmodial activity against artemisinin-resistant Plasmodium falciparum 6320 assessed as reduction in parasite survival at 700 nM incubated for 6 hrs followed by compound washout thrice and further cultured in compound free medium for 66 hrs by RSA; assay type: functional, organism-based
Plasmodium falciparum [4] = test: Inhibition of Plasmodium falciparum HDAC assessed as hyperacetylation of histone H3 at 20 times IC50 incubated for 4 hrs by Western blot analysis
Plasmodium falciparum [5] = test: Antiplasmodial activity against synchronized ring stage Plasmodium falciparum 3D7 infected in human erythrocytes assessed as reduction in parasite growth incubated for 72 hrs by Giemsa staining based light microscopic method; assay type: functional, organism-based; conditions: 3D7, Erythrocyte
[6] = AUC (0 to infinity) in Balb/c mouse at 10 mg/kg, po administered as single dose measured upto 24 hrs by LC-MS/MS analysis; assay type: ADME, organism-based; parameters: route oral, dose 10 mg/kg, time <=24; conditions: in vivo
Plasmodium falciparum [7] = test: Antiplasmodial activity against Plasmodium falciparum C2A infected in human erythrocytes assessed as reduction in parasite growth incubated for 72 hrs by Giemsa staining based light microscopic method; assay type: functional, organism-based; conditions: Erythrocyte
[8] = Apparent clearance during terminal phase in Balb/c mouse at 5 mg/kg, ip administered as single dose measured upto 24 hrs by LC-MS/MS analysis; assay type: ADME, organism-based; conditions: Balb/c, in vivo, read-out: CLz/F (converted)
[9] = Toxicity in Balb/c mouse infected with blood stage Plasmodium yoelii assessed as animal death at 10 to 30 mg/kg, ip QD for 5 consecutive days and measured on day 6; assay type: organism-based; conditions: in vivo, 120 h, dose 10-30 mg/kg, time 5 day
[10] = Toxicity in Balb/c mouse infected with sporozoites liver stage Plasmodium berghei assessed as animal death at 30 mg/kg, ip administered as single dose and measured after 2 hrs; assay type: organism-based; conditions: in vivo
HEK-293T = test: Cytotoxicity against human HEK293T cells assessed as reduction in cell viability incubated for 72 hrs by cell titer glo assay; assay type: cell-based
[11] = Clearance in mouse liver microsomes incubated upto 45 mins in presence of NADPH by LC-MS/MS analysis; assay type: ADME, Microsome; conditions: read-out: CLH
Plasmodium yoelii = test: Antiplasmodial activity against blood stage Plasmodium yoelii infected in Balb/c mouse assessed as reduction in parasitemia at 10 to 30 mg/kg, ip QD for 5 consecutive days and measured on day 20 by microscopic analysis; assay type: functional, organism-based; conditions: dose 10-30 mg/kg, time 5.0 day
Plasmodium falciparum [12] = test: (§1) Antimalarial activity against synchronized schizont stage transgenic Plasmodium falciparum 3D7 with C-terminal glmS-fused HDAC2 knockdown assessed as parasite growth inhibition pretreated with glucosamine followed by compound treatment and incubated for 4 hrs followed by compound washout for thrice and subsequent culturing for 68 hrs by SYBR Green 1 staining based analysis; assay type: functional, organism-based
HepG2 = test: Cytotoxicity against human HepG2 cells assessed as reduction in cell viability incubated for 72 hrs by cell titer glo assay; assay type: cell-based; conditions: HepG2, 72 h
Plasmodium falciparum [13] = test: as §1, with “3xTY1-fused” for “glmS-fused”; assay type: functional, organism-based
Plasmodium falciparum [14] = test: Antiplasmodial activity against schizont stage Plasmodium falciparum 3D7 infected in human erythrocytes assessed as reduction in parasitemia at 10 times IC50 incubated for 12 hrs followed by compound washout and measured at 96 hrs post infection by […] analysis; assay type: functional, organism-based; conditions: Erythrocyte
Plasmodium falciparum [15] = test: Antiplasmodial activity against Plasmodium falciparum GB4 infected in human erythrocytes assessed as reduction in parasite growth incubated for 72 hrs by Giemsa staining based light microscopic method; assay type: functional, organism-based; conditions: GB4, Erythrocyte
Plasmodium falciparum [16] = test: Antiplasmodial activity against synchronized ring stage Plasmodium falciparum 3D7 infected in human erythrocytes assessed as new ring stage formation at 10 times IC50 incubated for 12 hrs followed by compound washout and measured at 50 hrs by […] analysis; assay type: functional, organism-based; conditions: Erythrocyte
Plasmodium falciparum [17] = test: Antiplasmodial activity against synchronized ring stage Plasmodium falciparum Dd2 infected in human erythrocytes assessed as reduction in parasite growth incubated for 72 hrs by Giemsa staining based light microscopic method; assay type: functional, organism-based; conditions: Dd2, Erythrocyte
Plasmodium falciparum [18] = test: as §1, with “3xTY1-fused HDAC1” for “glmS-fused HDAC2”; assay type: functional, organism-based
[19] = Apparent volume of distribution during terminal phase in Balb/c mouse at 10 mg/kg, po administered as single dose measured upto 24 hrs by LC-MS/MS analysis; assay type: ADME, organism-based; conditions: in vivo
Plasmodium falciparum [20] = test: Antiplasmodial activity against artemisinin-resistant ring stage Plasmodium falciparum 6320 infected in human erythrocytes assessed as reduction in parasite growth incubated for 72 hrs by Giemsa staining based light microscopic method; assay type: functional, organism-based; conditions: Plasmodium falciparum, 6320, Erythrocyte
[21] = Inhibition of recombinant full length C-terminal His/FLAG-tagged Plasmodium falciparum HDAC1 expressed in baculovirus infected sf9 insect cells using fluorogenic […] as substrate preincubated for 1.5 hrs followed by substrate addition and measured after 30 mins by HDAC-GloI/II assay
[22] = Apparent volume of distribution during terminal phase in Balb/c mouse at 5 mg/kg, ip administered as single dose measured upto 24 hrs by LC-MS/MS analysis; assay type: ADME, organism-based; conditions: Balb/c, in vivo, read-out: Vz/F
Plasmodium berghei = test: Antiplasmodial activity against liver stage Plasmodium berghei infected in Balb/c mouse assessed as reduction in parasitemia at 30 mg/kg, ip administered as single dose by microscopic analysis; assay type: functional, organism-based
[23] = Half life in mouse liver microsomes incubated upto 45 mins in presence of NADPH by LC-MS/MS analysis; assay type: ADME, Microsome
[24] = Selectivity index, ratio of IC50 for cytotoxicity against human HepG2 cells assessed to IC50 for antiplasmodial activity against synchronized ring stage Plasmodium falciparum 3D7 infected in human erythrocytes; assay type: toxicity, cell-based; conditions: read-out: Ratio IC50
Plasmodium falciparum [25] = test: Antiplasmodial activity against Plasmodium falciparum CP286 infected in human erythrocytes assessed as reduction in parasite growth incubated for 72 hrs by Giemsa staining based light microscopic method; assay type: functional, organism-based; conditions: CP286, Erythrocyte
[26] = Selectivity index, ratio of IC50 for cytotoxicity against human HEK293T cells assessed to IC50 for antiplasmodial activity against synchronized ring stage Plasmodium falciparum 3D7 infected in human erythrocytes; assay type: toxicity, cell-based; conditions: read-out: Ratio IC50
Plasmodium falciparum [27] = test: Antiplasmodial activity against artemisinin-resistant Plasmodium falciparum 6218 infected in human erythrocytes assessed as reduction in parasite growth incubated for 72 hrs by Giemsa staining based light microscopic method; assay type: functional, organism-based; conditions: Plasmodium falciparum, 6218, Erythrocyte
[28] = Toxicity in Balb/c mouse infected with blood stage Plasmodium yoelii assessed as recrudescence at 10 to 30 mg/kg, ip QD for 5 consecutive days and measured on day 20; assay type: organism-based; conditions: in vivo, 120 h, dose 10-30 mg/kg, time 5 day

Cl.Cn1cc(CNCC2CCN(c3ncc(C(=O)NO)cn3)CC2)c2ccccc21 [QUISINOSTAT HYDROCHLORIDE]
Activity (Plasmodium falciparum [1]): Active | Cmax [2]: 88.7 ng/mL | Activity (Plasmodium falciparum [3]): Active | inhibition (Plasmodium falciparum [4]): Active | IC50 (Plasmodium falciparum [5]): 5.2 nM | AUC(0-inf) [6]: 5.98 ng·h/mL | IC50 (Plasmodium falciparum [7]): 2.53 nM | CL/F [8]: 462 mL/min/kg | Activity [9]: Toxic | Activity [10]: Toxic | IC50 (HEK-293T): 48 nM | CLint scaled [11]: 410 mL/min/kg | Activity (Plasmodium yoelii): inactive | IC50 (Plasmodium falciparum [12]): 23.7 nM | IC50 (HepG2): 42 nM | IC50 (Plasmodium falciparum [13]): 17.2 nM | Activity (Plasmodium falciparum [14]): Active | IC50 (Plasmodium falciparum [15]): 1.7 nM | Activity (Plasmodium falciparum [16]): Active | IC50 (Plasmodium falciparum [17]): 7.09 nM | IC50 (Plasmodium falciparum [18]): 12.4 nM | Vz/F [19]: 4172 L/kg | IC50 (Plasmodium falciparum [20]): 1.62 nM | IC50 [21]: 0.003 nM | Vd/F [22]: 245 L/kg | Activity (Plasmodium berghei): inactive

Cl.Cn1cc(CN2CCC3(CCN(c4ncc(C(=O)NO)cn4)CC3)C2)c2ccncc21
half-life [23]: 3.06 h | IC50 (Plasmodium falciparum [5]): 3 nM | IC50 (Plasmodium falciparum [7]): 4.9 nM | Activity [9]: Non-Toxic | IC50 (HEK-293T): 537 nM | CLint scaled [11]: 29.7 mL/min/kg | selectivity ratio [24]: 265 | Activity (Plasmodium yoelii): inactive | IC50 (HepG2): 792 nM | IC50 (Plasmodium falciparum [25]): 5.7 nM | IC50 (Plasmodium falciparum [15]): 4.4 nM | selectivity ratio [26]: 180 | IC50 (Plasmodium falciparum [17]): 5.6 nM | IC50 (Plasmodium falciparum [27]): 3.8 nM | Activity [28]: Toxic | IC50 (Plasmodium falciparum [20]): 3.9 nM
